Consider nine compounds from patent publication US5374772A, “Substituted benzoic acids, inhibitors of phospholipases A2” (Hoffmann-LaRoche Inc., priority 1993, dated 1994).

For assay [1], the target named is T1, HSF-PLA2 (extracellular PLA2 obtained from human synovial fluid) (Homo sapiens, UniProt P14555).
T1 construct: extracellular enzyme obtained from human synovial fluid; from tissue; host or cells: pooled human synovial fluid (0.1% v/v in the assay)
T1 sequence (P14555 21-144): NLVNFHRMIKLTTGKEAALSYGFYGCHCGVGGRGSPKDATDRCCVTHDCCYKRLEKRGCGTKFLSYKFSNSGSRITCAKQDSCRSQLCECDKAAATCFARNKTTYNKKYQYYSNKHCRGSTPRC
In words: Assay for Inhibition of HSF-PLA2 In Vitro. It counts as biochemical. The settings on record: for IC50: given as 50 % inhibition at the given concentration, 14C-oleate-labelled E. coli substrate, pH 7.3, 37° C., 30 minutes, read-out: % Inhib of HSF-PLA2: 50 (concentration) = IC50 (μM concentration that produces 50% inhibition of PLA2 activity). Here is the method: The PLA2 used in this test is the extracellular enzyme obtained from human synovial fluid (HSF-PLA2). The assay for HSF-PLA2 activity was a modification of the described method [Franson R., Dobrow R., Weiss, J., Elsbach P., and […]. Lipid Res., 19, 18-23 (1978)] which was conducted using [1-^14 C]-oleate-labelled E. coli substrate in excess at a final concentration of 20,000 dpm/ml. This was equivalent to 18.2 mM of cell membrane phospholipid phosphorus and 2×10^9 autoclaved E. coli/ml. The optimal conditions which were developed for the assay of HSF-PLA2 inhibitors are summarized as follows. […] The reaction was terminated by the addition of 2.5 ml of chloroform-methanol (1 to 1.5, v/v). The extraction of lipids from the stopped reaction mixture was conducted by the further additions of 0.5 ml of chloroform and 1 ml of water with mixing. […] The extracted lipid residue was redissolved in […] of a solution containing carrier oleic acid (0.2 mg/ml) of […]]). […] This TLC system rapidly (6 minutes) resolved the enzymatically released product, ^14 C-oleic acid, from the unreacted ^14 C-phospholipid substrate. The unsaturated lipids were located on the chromatogram by a brief exposure to iodine vapor. The oleic acid zone (Rf value 0.95) and phospholipid zone (origin) were cut out, chopped into small pieces, shaken with 2 ml of ethanol-water (80 to 20, v/v) and 15 ml of Aquasol and counted for radioactivity. A control incubation of substrate in the absence of HSF-PLA2 was performed in each experiment. The PLA2 activity of the human synovial fluid was corrected for this small control value. […] The specific activity of PLA2 in the pooled human synovial fluid under the optimal assay conditions was 49.2 nmoles [1-^14 C]-oleic acid released hour^-1 mg^-1. The IC50 (μM concentration of test compound that produces 50% inhibition of PLA2 activity) was determined for each test compound.

The subject of assay [2] is croton oil-induced mouse ear edema. Description: Croton Oil Mouse Ear Edema Test. Format: in vivo, male CD-1 mice. The note with it: 1 mg topical, coapplied with croton oil, ear punch weight at 6 hours. Here is the method: The croton oil-induced mouse ear edema test, a model of irritant-induced contact dermatitis, has been used for evaluation of the PLA2 inhibitors by the topical route of administration. This test was carried out as described in the following references:
The major active ingredient in croton oil is the tumor promoter 12-O-tetradecanoylphorbol-13-acetate (TPA) and the topical application of TPA to mouse skin has been reported to cause an increase in epidermal PGE2 production as well as an increase in epidermal cell membrane PLA2 activity. Indomethacin, an inhibitor of prostaglandin synthesis, prevented the TPA-mediated increase in epidermal PGE2 levels as well as the TPA-mediated induction of epidermal cell ornithine decarboxylase. Furthermore, the application of PGE2 to mouse skin countered the inhibitory effect of indomethacin upon TPA-stimulated cellular proliferation.
Twenty five μl of a 1% croton oil solution [dissolved in a mixture of pyridine/water/diethyl ether at a ratio of 5/20/75 (croton oil vehicle)] are applied to the outer side of the right ear of 3-4 week old male CD-1 mice (8 animals per group). The test compounds are dissolved directly in the 1% croton oil solution at various concentrations and coapplied. Control animals receive 25 μl of croton oil vehicle on the right ear. Biopsy punches are removed at 6 hours from the fight ear of the animals using a 6 mm skin trephine (Roboz, Washington, D.C.) and the wet weight of the ear punches is determined. The weight of the biopsy punches is a measure of ear inflammation, primarily edema. The data are expressed as percent inhibition relative to control groups.
Statistical analysis of the mean edema values of the control versus the treated groups is performed using Student's t-test. The significance of changes from the mean value for vehicle-treated (control) animals in the following Tables is indicated as follows: *p<0.05, **p<0.01, ***p<0.005,ns/not significant.

In assay [3] the test system is TPA-induced mouse ear edema. In words: TPA Induced Mouse Ear Edema Test (ear punch weight). Format: in vivo, male CD-1 mice. The note with it: Mus musculus; 0.3 mg topical, 30 minutes prior to TPA, ear punch weight at 6 hours; read-out: % Inhib of TPA Mouse Ear Edema (0.3 mg). On the procedure: The TPA-induced mouse ear edema test, a model of irritant-induced contact dermatitis is described in the following reference: J. M. Young, B. M. Wagner and […]. Invest. Dermatology 80, 48-52 (1983). For this test, 10 μl of 12-O-tetradecanoylphorbol-13-acetate (TPA), dissolved in a vehicle of pyridine: water: diethyl ether (20:5:75), was applied to the outside of the right ear of 3-4 week old male CD-1 mice (8 animals per group). The test compounds were dissolved in the same vehicle and 10 μl was applied to the inside of the same ear 30 minutes prior to the application of TPA. Ear punches (6 mm) were removed at 6 hours after TPA application, weighed and assayed for myeloperoxidase (MPO) activity as described in the following reference: P. P. Bradley, […]. Christensen and G. Rothstein, J. Invest. Dermatology 78, 206-209 (1982). The wet weight of the ear biopsy punches is a measure of the ear edema and the level of MPO activity in the ear punches is an indicator of neutrophil infiltration. The data are expressed as percent inhibition of drug-[…] relative to the control group.

The subject of assay [4] is myeloperoxidase (MPO) activity, indicator of neutrophil infiltration. In words: TPA mouse ear test, myeloperoxidase activity in ear punches. The settings on record: 0.3 mg topically. It counts as in vivo, male CD-1 mice. Here is the method: For this test, 10 μl of 12-O-tetradecanoylphorbol-13-acetate (TPA), dissolved in a vehicle of pyridine: water: diethyl ether (20:5:75), was applied to the outside of the right ear of 3-4 week old male CD-1 mice (8 animals per group). The test compounds were dissolved in the same vehicle and 10 μl was applied to the inside of the same ear 30 minutes prior to the application of TPA. Ear punches (6 mm) were removed at 6 hours after TPA application, weighed and assayed for myeloperoxidase (MPO) activity as described in the following reference: P. P. Bradley, D. A. Priebat, R. D. Christensen and G. Rothstein, J. Invest. Dermatology 78, 206-209 (1982). The wet weight of the ear biopsy punches is a measure of the ear edema and the level of MPO activity in the ear punches is an indicator of neutrophil infiltration. The data are expressed as percent inhibition of drug-treatedanimals relative to the control group.

The subject of assay [5] is carrageenan-induced paw edema. In words: Rat Carrageenan Paw Edema. Format: in vivo, Lewis rats. The note with it: 30 mg/kg ip, measured at 2 hours after carrageenan injection. Here is the method: Representative compounds of the invention were tested in the rat carrageenan-induced paw edema test to determine their ability to inhibit this acute inflammatory response. Test compounds were administered intraperitoneally or orally to groups of seven Lewis rats (~200 gm) 1 hr prior to carrageenan administration. The test compounds were dissolved in dimethyl sulfoxide for intraperitoneal administration and dissolved or suspended in Labrafil […] for oral administration. At 0 hour, 0.1 mL of 1% carrageenan dissolved in pyrogen free saline was injected subplantarly into the right hind paw to elicit the inflammatory response. The volume (in mL) of the right hind paw was measured by immersion of the paw to the level of the lateral malleolus in an aqueous plethysmometer immediately prior to the injection of carrageenan and then at 1, 2 and 4 hr after carrageenan injection. The paw edema was calculated by subtracting the zero time reading from the readings taken after injection. The percent change of the edema volume from the vehicle treated control was calculated to determine the activity of the test compound. Statistical analysis of the mean paw edema values of the control versus the treated groups was performed using Student's t-test.
(Carrageenan injected into the paw causes an acute inflammation.)

As to `CCCCCCCCCCCCCCCCCCOc1cc(OCCCOc2ccc(O)cc2)cc(C(=O)O)c1` [Example 31, 3-[3-(4-Hydroxyphenoxy)propoxy]-5-(octadecyloxy) benzoic acid], the inhibition at 1 µM in assay [1] (1 μM, read-out: % Inhib of HSF-PLA2) was determined as 37%. Moreover, in assay [2], the “% Inhib of Croton Oil Mouse Ear Edema (1 mg)” value (“% Inhib … (1 mg)” below) amounted to 84%. Moreover, the inhibition in vivo at 0.3 mg in assay [3] was determined as 58%. Further, the “% Inhib of myeloperoxidase in the TPA mouse ear test” value (from here on “% Inhib of myeloperoxidase”) in assay [4] is recorded as 70%. In addition, the “inhibition of the edema (rat carrageenan paw edema)” value in assay [5] came out at 55%.
Regarding `CCCCCCCCCCOc1cc(OCCCCCCc2cccc(O)c2O)cc(C(=O)O)c1` [Example 68, 3-(Decyloxy)-5-[[6-(2,3-dihydroxyphenyl)hexyl]oxy]benzoic acid], the inhibition at 20 µM in assay [1] (20 μM, read-out: % Inhib of HSF-PLA2) was determined as 74%. Moreover, the inhibition in vivo at 0.3 mg in assay [3] was 58%. Also, in assay [4], the “% Inhib of myeloperoxidase” value came out at 89%.
Regarding `CCCCCCCCCCCCCCCCCCOc1cc(OC(=O)C(c2ccccc2)c2ccccc2)cc(C(=O)O)c1` [Example 11, 3-(Octadecyloxy)-5-(2,2-diphenyl-1-oxoethoxy) benzoic acid], the IC50 in assay [1] turned out to be 0.3 µM. Further, in assay [2], the “% Inhib … (1 mg)” value turned out to be 71%.
`CCCCCCCCCCCCCCCCCCOc1cc(OC(=O)C23CC4CC(CC(C4)C2)C3)cc(C(=O)O)c1` [Example 13, 3-(Octadecyloxy)-5-[(tricyclo[3.3.1./3,7/]dec-1-ylcarbonyl)oxy]benzoic acid]: the inhibition at 5 µM in assay [1] (5 μM, read-out: % Inhib of HSF-PLA2) came to 86%. In assay [2], the “% Inhib … (1 mg)” value was 81%.
As to `CCCCCCCCCCOc1cc(OCCCOc2ccc(O)cc2)cc(C(=O)O)c1` [Example 40, 3-(Decyloxy)-5-[3-(4-hydroxyphenoxy)propoxy]benzoic acid], the IC50 in assay [1] was determined as 8.8 µM. The inhibition in vivo at 0.3 mg in assay [3] came out at 58%. For the same compound, the “% Inhib of myeloperoxidase” value in assay [4] amounted to 72%.
On to `CCCCCCCCCCCCCCOc1cc(OCCCCCCc2cccc(O)c2O)cc(C(=O)O)c1` [Example 63, 3-[[6-(2,3-dihydroxyphenyl)hexyl]oxy]-5-(tetradecyloxy)benzoic acid], for which the inhibition at 10 µM in assay [1] (read-out: % Inhib of HSF-PLA2) is 88%. Moreover, in assay [3], the inhibition in vivo at 0.3 mg was found to be 61%. The “% Inhib of myeloperoxidase” value in assay [4] worked out at 61%.
Regarding `CCCCCCCCCCCCCCCCCCOc1cc(OCCCOc2ccc(OCc3ccccc3)cc2)cc(C(=O)O)c1` [Example 30, 3-[[3-(4-Phenylmethoxy)phenoxy]propoxy]-5-(octadecyloxy)benzoic acid], in assay [2], the “% Inhib … (1 mg)” value was 62%.
For `CCCCCCCCCCCCCCCCCCOc1cccc(C(=O)O)c1OCCCOc1ccc(O)cc1` [Example 58, 2-[3-(4-Hydroxyphenoxy)propoxy]-3-(octadecyloxy) benzoic acid], the inhibition at 10 µM in assay [1] (read-out: % Inhib of HSF-PLA2) came out at 93%. In assay [3], the inhibition in vivo at 0.3 mg was determined as 48%. Besides, the “% Inhib of myeloperoxidase” value in assay [4] was found to be 62%.
Take `CCCCCCCCCCCCCCCCCCOc1cc(OCCCOc2ccccc2)cc(C(=O)O)c1` [Example 17, 3-(Octadecyloxy)-5-(3-phenoxypropoxy)benzoic acid]: the IC50 in assay [1] is 1.4 µM. The “% Inhib … (1 mg)” value in assay [2] stood at 81%.
